Where no end group is shown, it is not given here. Side-chain parts run from the residue outwards. CX1X1X1RKRLDRIAR‑NH2 = not defined here; bMB = bis-maleimidobutane
Tests used:
Format in all cases: cell-based
[1] = tested on: human fetal osteoblast cell line (hFOB); assay: Cell growth study, MTS relative cell number, hFOB cells; details: for % OF CONTROL VALUE / MEAN ABSORBANCE: hFOB, 3 days in culture, MTS
Protocol: (§1) The synthetic branched peptide construct of Example 4 was tested in cell growth studies, to determine the ability of the synthetic branched peptide construct to stimulate cell growth. Cell growth was monitored using a commercially available kit (Promega Corporation, Madison, Wis.) based on a tetrazolium compound (3-(4,5-dimethylthiazol-2-yl)-5-(3-carboxymethoxyphenyl)-2-(4-sulfophenyl)-2H-tetrazolium, inner salt (MTS). Aliquots of 10^3 cells were seeded into wells of 96-well plates and allowed to attach. The medium was then replaced with a low serum medium containing between 0 and 10 μg/mL of the synthetic branched peptide construct of Example 4. After 3 days in culture, the relative cell number was monitored using MTS following the directions of the manufacturer. Statistical significance was determined using ANOVA followed by post-hoc multiple comparisons versus control group (Dunnett's Method).
(§2) MC3T3E1 osteoblastic cells, C3H10T1/2 mouse pluripotent stem cells, C2C12 murine myoblasts, and cells from a human fetal osteoblast cell line (hFOB) were obtained from the American Type Culture Collection (Manassas, Va.) and were maintained in DMEM:F12 medium containing newborn calf serum and antibiotics. MC3T3E1, C3H10T1/2, and hFOB cells were positive for growth induction by synthetic branched peptide construct of […] as shown in Table 3 below. The effective concentration was between 1 and 10 μg/mL. C2C12 was negative for growth using the synthetic branched peptide construct of Example 4.

[2] = tested on: C3H10T1/2 mouse pluripotent stem cells; assay: Cell growth study, MTS relative cell number, C3H10T1/2 cells; details: for % OF CONTROL VALUE / MEAN ABSORBANCE: 3 days in culture, MTS
Protocol: as §1, §2

C2C12 murine myoblasts = assay: Cell growth study, MTS relative cell number, C2C12 cells; details: for % OF CONTROL VALUE / MEAN ABSORBANCE: 3 days in culture, MTS
Protocol: as §1, §2

[3] = tested on: MC3T3E1 osteoblastic cells; assay: Cell growth study, MTS relative cell number, MC3T3E1 cells; details: for % OF CONTROL VALUE / MEAN ABSORBANCE: 3 days in culture, MTS
Protocol: as §1, §2

Substance: NH2-LYVDFSDVGWNDWC(bMB-CX1X1X1RKRLDRIAR-amide)-AISMLYLDENEKVVL-amide (chain 1 H-LYVDFSDVGWNDWC([bMB-CX1X1X1RKRLDRIAR‑NH2]); chain 2 AISMLYLDENEKVVL-NH2; reading uncertain; also: chains 1 and 2 form one continuous backbone (C14 of chain 1 peptide-bonded to A1 of chain 2), printed as NH2-LYVDFSDVGWNDWC(bMB-CX1X1X1RKRLDRIAR-amide)-AISMLYLDENEKVVL-amide) [Example 4, heterodimeric BMP-2 analog branched via cysteine and 1,4-bis-maleimidobutane; X1 is 6-aminohexanoic acid]
- growth induction ([1]; hFOB cells, 0 to 10 μg/mL, 3 days): positive
- % OF CONTROL VALUE ([1]; 0.5 μg/mL): 121%
- MEAN ABSORBANCE ([1]; 0.5 μg/mL): 0.58
- % OF CONTROL VALUE ([1]; 1 μg/mL): 131%
- MEAN ABSORBANCE ([1]; 1 μg/mL): 0.62
- % OF CONTROL VALUE ([1]; 2 μg/mL): 135%
- MEAN ABSORBANCE ([1]; 2 μg/mL): 0.64
- % OF CONTROL VALUE ([1]; 5 μg/mL): 127%
- MEAN ABSORBANCE ([1]; 5 μg/mL): 0.60
- % OF CONTROL VALUE ([1]; 10 μg/mL): 130%
- MEAN ABSORBANCE ([1]; 10 μg/mL): 0.62
- % OF CONTROL VALUE ([2]; C3H10T1/2, 0.5 μg/mL): 147%
- MEAN ABSORBANCE ([2]; C3H10T1/2, 0.5 μg/mL): 0.41
- % OF CONTROL VALUE ([2]; C3H10T1/2, 1 μg/mL): 152%
- MEAN ABSORBANCE ([2]; C3H10T1/2, 1 μg/mL): 0.42
- % OF CONTROL VALUE ([2]; C3H10T1/2, 2 μg/mL): 158%
- MEAN ABSORBANCE ([2]; C3H10T1/2, 2 μg/mL): 0.44
- % OF CONTROL VALUE ([2]; C3H10T1/2, 5 μg/mL): 156%
- MEAN ABSORBANCE ([2]; C3H10T1/2, 5 μg/mL): 0.43
- % OF CONTROL VALUE ([2]; C3H10T1/2, 10 μg/mL): 144%
- MEAN ABSORBANCE ([2]; C3H10T1/2, 10 μg/mL): 0.40
- growth induction ([2]; C3H10T1/2 cells, 0 to 10 μg/mL, 3 days): positive
- % OF CONTROL VALUE (C2C12 murine myoblasts; C2C12, 0.5 μg/mL): 99%
- MEAN ABSORBANCE (C2C12 murine myoblasts; C2C12, 0.5 μg/mL): 0.30
- % OF CONTROL VALUE (C2C12 murine myoblasts; C2C12, 1 μg/mL): 101%
- MEAN ABSORBANCE (C2C12 murine myoblasts; C2C12, 1 μg/mL): 0.30
- % OF CONTROL VALUE (C2C12 murine myoblasts; C2C12, 2 μg/mL): 99%
- MEAN ABSORBANCE (C2C12 murine myoblasts; C2C12, 2 μg/mL): 0.30
- % OF CONTROL VALUE (C2C12 murine myoblasts; C2C12, 5 μg/mL): 99%
- MEAN ABSORBANCE (C2C12 murine myoblasts; C2C12, 5 μg/mL): 0.30
- % OF CONTROL VALUE (C2C12 murine myoblasts; C2C12, 10 μg/mL): 90%
- MEAN ABSORBANCE (C2C12 murine myoblasts; C2C12, 10 μg/mL): 0.27
- growth induction (C2C12 murine myoblasts; C2C12 cells, 0 to 10 μg/mL, 3 days): negative
- % OF CONTROL VALUE ([3]; MC3T3E1, 0.5 μg/mL): 103%
- MEAN ABSORBANCE ([3]; MC3T3E1, 0.5 μg/mL): 0.74
- % OF CONTROL VALUE ([3]; MC3T3E1, 1 μg/mL): 99%
- MEAN ABSORBANCE ([3]; MC3T3E1, 1 μg/mL): 0.71
- % OF CONTROL VALUE ([3]; MC3T3E1, 2 μg/mL): 138%
- MEAN ABSORBANCE ([3]; MC3T3E1, 2 μg/mL): 0.99
- % OF CONTROL VALUE ([3]; MC3T3E1, 5 μg/mL): 133%
- MEAN ABSORBANCE ([3]; MC3T3E1, 5 μg/mL): 0.96
- % OF CONTROL VALUE ([3]; MC3T3E1, 10 μg/mL): 134%
- MEAN ABSORBANCE ([3]; MC3T3E1, 10 μg/mL): 0.96
- growth induction ([3]; MC3T3E1 cells, 0 to 10 μg/mL, 3 days): positive
